This note sets out measurements from ChEMBL document CHEMBL4038296, “A bromopyrrole-containing diterpene alkaloid from the Okinawan marine sponge Agelas nakamurai activates the insulin pathway in Huh-7 human hepatoma cells by inhibiting protein tyrosine phosphatase 1B” (Bioorg Med Chem Lett, 2017).

The target of experiment [1] is RAC-alpha serine/threonine-protein kinase (Homo sapiens) (UniProt P31749). As to the kind of experiment: Induction of Akt phosphorylation in human Huh7 cells measured after 2 hrs by Western blot method. Type of experiment: cell-based. Background: A western blot detects proteins with antibodies after separation by electrophoresis.
Experiment [2] has as its target T1, Tyrosine-protein phosphatase non-receptor type 1 (Homo sapiens) (UniProt P18031).
T1 sequence (whole entry): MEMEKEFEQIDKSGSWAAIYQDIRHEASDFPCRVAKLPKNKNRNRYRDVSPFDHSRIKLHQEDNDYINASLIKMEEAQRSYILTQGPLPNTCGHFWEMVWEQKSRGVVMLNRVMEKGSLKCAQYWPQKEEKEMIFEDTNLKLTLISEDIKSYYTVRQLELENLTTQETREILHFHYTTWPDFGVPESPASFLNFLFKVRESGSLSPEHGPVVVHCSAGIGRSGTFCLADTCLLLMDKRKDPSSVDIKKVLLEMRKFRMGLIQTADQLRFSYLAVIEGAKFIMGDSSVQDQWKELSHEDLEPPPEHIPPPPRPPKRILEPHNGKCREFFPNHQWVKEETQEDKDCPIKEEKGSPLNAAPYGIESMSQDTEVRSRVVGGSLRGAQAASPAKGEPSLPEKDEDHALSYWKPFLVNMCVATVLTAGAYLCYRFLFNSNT
Put plainly: Inhibition of PTP1B in human Huh7 cells assessed as increase in insulin-stimulated Akt phosphorylation preincubated for 1 to 2 hrs followed by insulin addition measured after 5 mins by Western blot method. Type of experiment: cell-based.

Experiment [3] addresses RAC-alpha serine/threonine-protein kinase (Homo sapiens) (UniProt P31749). Put plainly: Induction of Akt phosphorylation in human Huh7 cells up to 50 uM measured after 2 hrs by Western blot method. Type of experiment: cell-based.
For experiment [4], the target named is T2, Receptor-type tyrosine-protein phosphatase C (Homo sapiens, UniProt P08575).
T2 sequence (P08575 whole entry): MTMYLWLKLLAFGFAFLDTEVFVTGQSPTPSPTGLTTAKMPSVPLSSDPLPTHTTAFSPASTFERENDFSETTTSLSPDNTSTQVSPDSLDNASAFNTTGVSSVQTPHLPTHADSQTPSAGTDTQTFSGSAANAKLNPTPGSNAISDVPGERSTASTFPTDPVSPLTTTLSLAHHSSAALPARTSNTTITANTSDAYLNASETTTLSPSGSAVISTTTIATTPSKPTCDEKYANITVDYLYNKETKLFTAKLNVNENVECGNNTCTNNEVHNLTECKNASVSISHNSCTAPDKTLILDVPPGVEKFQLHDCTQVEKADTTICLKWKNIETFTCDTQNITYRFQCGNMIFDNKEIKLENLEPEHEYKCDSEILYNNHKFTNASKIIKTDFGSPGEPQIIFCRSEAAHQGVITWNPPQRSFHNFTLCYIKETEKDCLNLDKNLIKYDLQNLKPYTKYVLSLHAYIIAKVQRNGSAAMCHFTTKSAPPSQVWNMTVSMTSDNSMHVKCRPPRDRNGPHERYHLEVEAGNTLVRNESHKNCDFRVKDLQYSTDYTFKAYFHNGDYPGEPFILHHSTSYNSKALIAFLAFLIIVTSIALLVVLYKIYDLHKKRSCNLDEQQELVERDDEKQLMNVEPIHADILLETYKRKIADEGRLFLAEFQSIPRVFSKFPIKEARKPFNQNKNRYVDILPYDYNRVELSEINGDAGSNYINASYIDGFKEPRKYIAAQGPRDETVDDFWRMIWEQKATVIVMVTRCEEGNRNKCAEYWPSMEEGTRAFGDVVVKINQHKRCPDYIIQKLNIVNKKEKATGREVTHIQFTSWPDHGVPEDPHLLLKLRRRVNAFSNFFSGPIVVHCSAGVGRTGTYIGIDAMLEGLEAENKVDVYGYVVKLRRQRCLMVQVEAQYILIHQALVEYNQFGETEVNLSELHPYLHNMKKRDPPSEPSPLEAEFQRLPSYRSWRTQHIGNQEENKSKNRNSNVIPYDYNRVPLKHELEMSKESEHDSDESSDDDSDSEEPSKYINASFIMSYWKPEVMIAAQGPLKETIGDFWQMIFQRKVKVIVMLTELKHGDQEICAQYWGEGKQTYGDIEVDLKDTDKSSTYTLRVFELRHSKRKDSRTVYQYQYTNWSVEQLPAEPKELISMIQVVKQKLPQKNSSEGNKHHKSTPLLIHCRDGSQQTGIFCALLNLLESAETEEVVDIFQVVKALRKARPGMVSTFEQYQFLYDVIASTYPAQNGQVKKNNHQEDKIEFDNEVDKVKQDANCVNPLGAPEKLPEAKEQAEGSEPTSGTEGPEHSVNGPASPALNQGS
As to the kind of experiment: Inhibition of human recombinant CD45 using pNPP as substrate preincubated for 10 mins followed by substrate addition measured after 30 mins.

Experiment [5] has as its target RAC-alpha serine/threonine-protein kinase (Homo sapiens) (UniProt P31749). Put plainly: Activation of AKT in human Huh7 cells assessed as increase in insulin-stimulated Akt phosphorylation preincubated for 1 to 2 hrs followed by insulin addition measured after 5 mins by Western blot method. The format is cell-based.
The target of experiment [6] is T3, Tyrosine-protein phosphatase non-receptor type 1 (Homo sapiens, UniProt P18031).
T3 sequence (P18031 whole entry): T1 sequence (whole entry)
Put plainly: Inhibition of human recombinant PTP1B (1 to 322 residues) expressed in Escherichia coli using pNPP as substrate preincubated for 10 mins followed by substrate addition measured after 30 mins.

Experiment [7] addresses T4, Tyrosine-protein phosphatase non-receptor type 2 (Homo sapiens, UniProt P17706).
T4 sequence (P17706 whole entry): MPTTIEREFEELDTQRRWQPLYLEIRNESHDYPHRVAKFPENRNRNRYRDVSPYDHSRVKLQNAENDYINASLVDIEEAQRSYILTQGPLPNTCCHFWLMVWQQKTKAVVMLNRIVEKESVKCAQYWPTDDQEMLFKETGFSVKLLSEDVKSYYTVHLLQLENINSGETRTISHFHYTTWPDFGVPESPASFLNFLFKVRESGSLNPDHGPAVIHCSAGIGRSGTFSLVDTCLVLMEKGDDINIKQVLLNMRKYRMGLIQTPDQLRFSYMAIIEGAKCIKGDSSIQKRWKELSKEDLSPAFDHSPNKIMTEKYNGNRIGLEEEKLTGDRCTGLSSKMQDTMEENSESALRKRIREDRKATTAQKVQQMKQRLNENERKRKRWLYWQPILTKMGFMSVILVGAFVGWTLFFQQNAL
As to the kind of experiment: Inhibition of human recombinant TCPTP (1 to 317 residues) expressed in Escherichia coli using pNPP as substrate preincubated for 10 mins followed by substrate addition measured after 30 mins.

The target in experiment [8] is Dual specificity protein phosphatase 3 (Homo sapiens, UniProt P51452). As to the kind of experiment: Inhibition of human recombinant VHR expressed in Escherichia coli using pNPP as substrate preincubated for 10 mins followed by substrate addition measured after 30 mins.

The source made the active and inactive calls. The rule behind the calls is not given here.

As a reminder, the IC50 is the midpoint of a concentration-inhibition curve.

Chain of RAC-alpha serine/threonine-protein kinase (Homo sapiens) (P31749 whole entry): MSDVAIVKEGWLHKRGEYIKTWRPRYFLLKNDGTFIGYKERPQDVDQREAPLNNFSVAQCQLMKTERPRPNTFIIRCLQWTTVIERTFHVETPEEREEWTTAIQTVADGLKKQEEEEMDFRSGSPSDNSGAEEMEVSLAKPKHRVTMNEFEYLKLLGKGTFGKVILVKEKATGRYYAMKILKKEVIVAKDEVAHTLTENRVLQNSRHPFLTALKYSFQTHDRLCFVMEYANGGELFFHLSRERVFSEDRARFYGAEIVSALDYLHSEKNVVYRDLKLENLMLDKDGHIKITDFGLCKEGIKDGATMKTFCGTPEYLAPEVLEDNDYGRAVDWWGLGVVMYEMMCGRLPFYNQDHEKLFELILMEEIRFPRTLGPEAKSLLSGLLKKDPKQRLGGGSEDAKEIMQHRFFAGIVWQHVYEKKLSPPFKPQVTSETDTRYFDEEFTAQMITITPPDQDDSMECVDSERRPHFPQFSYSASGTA
Chain of Dual specificity protein phosphatase 3 (P51452 whole entry): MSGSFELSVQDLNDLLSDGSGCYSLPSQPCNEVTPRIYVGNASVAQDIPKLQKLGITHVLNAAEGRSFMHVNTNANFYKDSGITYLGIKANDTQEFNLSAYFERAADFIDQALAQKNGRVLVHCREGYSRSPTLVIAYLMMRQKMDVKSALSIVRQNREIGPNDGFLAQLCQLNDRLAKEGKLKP

Turning to `C/C(=C\Cn1c[n+](C)c2ncnc(N)c21)CC[C@]1(C)[C@@H](C)CC[C@@]2(C)C(COC(=O)c3cc(Br)c[nH]3)=CCC[C@@H]12`, the Activity result in experiment [1] was “Dose-dependent effect”. Also, the inhibition entry in experiment [2] was “Dose-dependent effect”. In addition, the result in experiment [3] was inactive.

In the case of `C/C(=C\Cn1c[n+](C)c2ncnc(N)c21)CC[C@]1(C)[C@@H](C)CC[C@@]2(C)C(COC(=O)c3ccc[nH]3)=CCC[C@@H]12`, the IC50 in experiment [4], in experiment [6], in experiment [7] and in experiment [8] was greater than 19 µM throughout. For the same compound, the Activity entry in experiment [1] and in experiment [5] was “Dose-dependent effect” in each case. Also, in experiment [3], the result was inactive.

Turning to `C/C(=C\C[n+]1cn(C)c2ncnc(N)c21)CC[C@]1(C)[C@@H](C)CC[C@@]2(C)C(COC(=O)c3cc(Br)c[nH]3)=CCC[C@@H]12`, the IC50 in experiment [4] is greater than 16 µM; in experiment [6] it was 15 µM; in experiment [7] it was greater than 16 µM; in experiment [8] it was 13 µM.
